Ends that are not written are not given here.
How the values were obtained:
[1] = biological target: T1, glyceraldehyde-3-phosphate dehydrogenase (GAPDH) (Rattus norvegicus, UniProt P04797); experiment: DNSP-11 pull-down with substantia nigra homogenate, 2D-PAGE and MALDI-TOF MS; assay type: binding
T1 construct: homogenate from isolated substantia nigra of normal young Fischer 344 rats; from tissue; host or cells: substantia nigra of Fischer 344 rats (cytosolic and membrane fractions)
Experimental: DNSP-11 Pull-down analysis: The F344 substantia nigra was homogenized in homogenization buffer (modified from York et al. (2005) FASED J. 19: 1202-4 with 20 mM HEPES, pH 7.4) and cytosolic fraction (supernatant) collected after 30 minutes at 100,000 g. 50 μg of bDNSP-11 was incubated with fraction for 15 minutes on ice. Sample was added to streptavidin magnetic beads (New England Biolabs), pelleted, and washed four times in homogenization buffer. Bound proteins were eluted by Solubilization/Rehydration Solution (7 M Urea, 2 M Thiourea, 50 mM DTT, 4% CHAPS, 1% NP-40, 0.2% Carrier ampholytes, 0.0002% Bromophenol blue), and analyzed by 2D-PAGE and MALDI-TOF MS.
In order to identify the interactions of DNSP-11 with protein partners and to gain insight into the cellular mechanisms involved with the actions of DNSP-11, a pull-down assay was performed with homogenate from isolated substantia nigra of normal young Fischer 344 rats. Cytosolic and membrane fractions were collected and incubated with biotinylated DNSP-11 for 30 minutes. Bound proteins were pulled down by strepavidin magnetic beads, extensively washed to remove non-specific binders, eluted with solubilization/rehydration buffer and separated by 2D-PAGE.
To identify these binding partners, protein bands were excised from the gels, trypsin digested, and analyzed by MALDI-TOF mass spectrometry. […]

[2] = system: mitochondrial-associated genes in the substantia nigra; experiment: Gene array analysis (Affymetrix) of substantia nigra after DNSP-11; assay type: in vivo, rat; details: 48 h after bilateral 30 μg
Experimental: Changes in expression of mitochondrial-associated genes in the substantia nigra (SN) of three young adult (5 month old) male F344 rats 48 hours following bilateral intranigral injections of DNSP-11 into the substantial nigra was assessed as follows.
A 3 μg/μl DNSP-11 peptide solution was prepared in citrate buffer and filter sterilized. Stereotaxic injections were made of 30 μg DNSP-11 in 10 ul citrate buffer into the substantia nigra on each side of the brain. Controls received […] injections of vehicle. Forty-eight hours later, the animals were euthanized, the brains quickly recovered and sectioned so that the bilateral SN could be dissected out as one block of tissue and snap frozen in liquid nitrogen. RNA was extracted from the SN samples for gene array analysis, which was conducted on Affymetrix Version II chips. A gene chip was run for each of the six rats: three bilateral vehicle recipients, three bilateral 30 μg DNSP-11 recipients.

MN9D cells = experiment: TUNEL staining, mitochondrial toxins; assay type: cell-based
Experimental: MN9D cells and B65 cells were cultured in Dulbecco's Modified Eagle's Medium (DMEM; 11995 (containing pyridoxol HCl); Sigma, St. Louis, Mo.) supplemented with 10% fetal bovine serum (HyClone, Logan, Utah), 50 U/mL penicillin and streptomycin. For each assay the cells were treated with mitochondrial-specific environmental toxins, i.e., MPP+, rotenone, and/or TaClo, and with or without DNSP-11. After incubation with the toxins, the cells were plated on 24-well poly-D-lysine plates (50,000 cells/well) for TUNEL assay (as described below) or 100,000 cell/well for caspase-3 assay in DMEM medium with 1% (v/v) penicillin-streptomycin only (as described below).
Terminal deoxynucleotidyl transferase mediated X-dUTP nicked end DNA labeling of cells (TUNEL staining) was used to assess cells undergoing apoptosis. […] The biotinylated nucleotides are detected by using streptavidin-horseradish peroxidase conjugate followed by the substrate, diaminobenzidine (DAB). […] Cell were counted with 20× magnification (4 random fields/well), 4 wells per group. Ratio between apoptotic cells and total cells was calculated. […]

T1 sequence (P04797 whole entry): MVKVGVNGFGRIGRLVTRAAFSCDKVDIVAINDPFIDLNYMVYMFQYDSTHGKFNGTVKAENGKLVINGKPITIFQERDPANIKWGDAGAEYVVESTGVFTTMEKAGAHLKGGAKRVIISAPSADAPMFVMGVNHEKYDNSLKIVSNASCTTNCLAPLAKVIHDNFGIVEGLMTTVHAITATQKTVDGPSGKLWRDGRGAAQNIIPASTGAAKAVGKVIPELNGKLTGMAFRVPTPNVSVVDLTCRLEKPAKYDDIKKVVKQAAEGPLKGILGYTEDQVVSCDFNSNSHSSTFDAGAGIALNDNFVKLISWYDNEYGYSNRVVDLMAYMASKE

For “PPEAPAEDRSL-NH2 [DNSP-11, PPEAPAEDRSL-amide]”, the “GAPDH as binding partner in pull-down” value ([1]; biotinylated DNSP-11, substantia nigra fractions, confirmed with pure GAPDH) was “identified”, the “number of bound proteins identified” value ([1]; cytosolic and membrane fractions, preliminary studies) was “approximately 20” and the “APP FOLD CHANGE” value ([2]; vs control) was −1.08. The “BACEI FOLD CHANGE” value ([2]; vs control) was −1.09, the “CASP3 FOLD CHANGE” value ([2]; vs control) was 1.18 and the “CASP8 FOLD CHANGE” value ([2]; vs control) was 1.25. The “CAT FOLD CHANGE” value ([2]; vs control) was 1.09, the “COX6A2 FOLD CHANGE” value ([2]; vs control) was 1.75 and the “COX6B1 FOLD CHANGE” value ([2]; vs control) was 1.04. The “COX17 FOLD CHANGE” value ([2]; vs control) was 1.11, the “GLRX2 FOLD CHANGE” value ([2]; vs control) was 1.09 and the “GPX7 FOLD CHANGE” value ([2]; vs control) was 1.19. The “MAOB FOLD CHANGE” value ([2]; vs control) was 1.13, the “MAP2K4 FOLD CHANGE” value ([2]; vs control) was −1.12 and the “MAPK9 FOLD CHANGE” value ([2]; vs control) was −1.21. For the same substance, the “MAPK10 FOLD CHANGE” value ([2]; vs control) was −1.08, the “NDUFA7 FOLD CHANGE” value ([2]; vs control) was 1.07 and the “PARK7 FOLD CHANGE” value ([2]; vs control) was 1.02. For the same substance, the “PRDX5 FOLD CHANGE” value ([2]; vs control) was 1.13, the “PSEN1 FOLD CHANGE” value ([2]; vs control) was 1.16 and the “TXN2 FOLD CHANGE” value ([2]; vs control) was 1.10. For the same substance, the “CAT catalase expression level, PEPTIDE” value ([2]; P 0.015) was 2828.2, the “CASP8 caspase 8 expression level, PEPTIDE” value ([2]; control 178.1, P 0.006) was 219.4 and the “GPX7 glutathione peroxidase 7 expression level, PEPTIDE” value ([2]; control 183.8, P 0.015) was 194.2. The “CASP3 caspase 3 expression level, PEPTIDE” value ([2]; control 367.5, P 0.024) was 421.4, the “BACEI beta-site APP-cleaving enzyme 1 expression level, PEPTIDE” value ([2]; control 510.6, P 0.016) was 451.6 and the “COX6A2 cytochrome c oxidase subunit Via polypeptide2 expression level, PEPTIDE” value ([2]; control 520.6, P 0.014) was 814.1. For the same substance, the “MAPK10 mitogen-activated protein kinase 10 expression level, PEPTIDE” value ([2]; control 552.8, P 0.008) was 505.0, the “PSEN1 presenilin 1 expression level, PEPTIDE” value ([2]; control 563.2, P 0.022) was 673.5 and the “MAPK9 mitogen-activated protein kinase 9 expression level, PEPTIDE” value ([2]; control 930.0, P 0.007) was 770.7. For the same substance, the “TXN2 thioredoxin 2 expression level, PEPTIDE” value ([2]; control 1378.5, P 0.010) was 1511.9, the “MAOB monoamine oxidase B expression level, PEPTIDE” value ([2]; control 1974.2, P 0.012) was 2199.8 and the “COX17 cytochrome c oxidase assembly homolog expression level, PEPTIDE” value ([2]; control 2017.8, P 0.025) was 2326.1. The “MAP2K4 mitogen-activated protein kinase kinase 4 expression level, PEPTIDE” value ([2]; control 2744.4, P 0.043) was 2422.4, the “NDUFA7 NADH dehydrogenase (ubiquinone) 1 alpha subcomplex, 7 expression level, PEPTIDE” value ([2]; control 2943.0, P 0.046) was 3125.4 and the “GLRX2 glutaredoxin 2 expression level, PEPTIDE” value ([2]; control 3472.2, P <0.001) was 3618.7. The “PRDX5 peroxiredoxin 5 expression level, PEPTIDE” value ([2]; control 4790.1, P 0.020) was 5569.8, the “PARK7 DJ-1 expression level, PEPTIDE” value ([2]; control 5159.4, P 0.032) was 5299.2 and the “COX6B1 cytochrome c oxidase subunit Vib polypeptide 1 expression level, PEPTIDE” value ([2]; control 7536.6, P 0.044) was 7869.7. The “APP amyloid beta (A4) precursor protein expression level, PEPTIDE” value ([2]; control 10117.2, P 0.006) was 9734.4, the “TUNEL staining, protection from toxins” value (MN9D cells; MPP+, rotenone or TaClo 1 to 12 hours, pretreatment with 10 nM or 100 nM DNSP-11) was “significant protection” and the “TUNEL staining, DNSP-11 alone” value (MN9D cells; no toxin) was “no significant effect”.
